Assay results: PubChem BioAssay (NCI)
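Dose response: 5 concentrations. Exposure: 48 h. Format: 96-well plates. Endpoint: linear interpolation; highest concentration if not reached. TGI is the concentration that stops growth completely.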 Where a SMILES comes first, the peptide text is derived from it. [ ]: non-standard residue; d: D form. The star is where a group is joined. ξ: configuration not given here. ξNMeF = CNC(Cc1ccccc1)C(=O)O; NMeV = CN[C@H](C(=O)O)C(C)C; Boc = CC(C)(C)OC(=O)*; OBn = c1ccc(CO*)cc1

Columns and labels:
Assay in all cases: growth of human tumour cells (NCI), 48 h
786-0 renal = test system: 786-0 renal
A498 renal = test system: A498 renal
EKVX NSCLC = test system: EKVX NSCLC
HCC-2998 colon = test system: HCC-2998 colon
HL-60(TB) leukemia = test system: HL-60(TB) leukemia
HT29 colon = test system: HT29 colon
MOLT-4 leukemia = test system: MOLT-4 leukemia
NCI-H226 lung = test system: NCI-H226 lung
NCI/ADR-RES ovarian = test system: NCI/ADR-RES ovarian
OVCAR-4 ovarian = test system: OVCAR-4 ovarian
OVCAR-8 ovarian = test system: OVCAR-8 ovarian
SK-MEL-5 melanoma = test system: SK-MEL-5 melanoma
SN12C renal = test system: SN12C renal
SNB-75 CNS = test system: SNB-75 CNS
HS 578T breast = test system: HS 578T breast

Row | Structure (SMILES) | TGI (786-0 renal) [µM] | TGI (A498 renal) [µM] | TGI (EKVX NSCLC) [µM] | TGI (HCC-2998 colon) [µM] | TGI (HL-60(TB) leukemia) [µM] | TGI (HT29 colon) [µM] | TGI (MOLT-4 leukemia) [µM] | TGI (NCI-H226 lung) [µM] | TGI (NCI/ADR-RES ovarian) [µM] | TGI (OVCAR-4 ovarian) [µM] | TGI (OVCAR-8 ovarian) [µM] | TGI (SK-MEL-5 melanoma) [µM] | TGI (SN12C renal) [µM] | TGI (SNB-75 CNS) [µM] | TGI (HS 578T breast) [µM]
1 | C=C(C)[C@H]1CC[C@@]23O[C@@H]2[C@@H](C[C@@]2(C)CC(=O)[C@H](CC(=O)C1)O2)OC(=O)[C@@]12CC[C@H](C(=C)C)CC(=O)C[C@H]4O[C@](C)(CC4=O)C[C@@H](OC3=O)[C@@H]1O2 | > 100 | > 100 | > 100 | > 100 | > 100 | > 100 | > 100 | > 100 | > 100 | > 100 | > 100 | > 100 | > 100 | > 100 | 
2 | COC(=O)C1(C(=O)OC)N=C(C)OC1c1ccccc1O (configuration not stated) | > 100 | > 100 | > 100 | > 100 | > 100 |  | > 100 | > 100 | > 100 | > 100 | > 100 | > 100 | > 100 | > 100 | 
3 | C=C1CC[C@@H]2C13[C@@H]1[C@H](CC(=O)[C@@]23C)C1(C)C (some centres not stated) | > 100 | > 100 |  |  | > 100 | > 100 | > 100 | > 100 | > 100 | > 100 | > 100 | > 100 | > 100 |  | > 100
4 | CC(C)[C@@H](C(=O)N(C)[C@H](C(=O)N1CCC[C@H]1C(=O)OCc1ccccc1)C(C)C)N(C)C(=O)C(Cc1ccccc1)N(C)C(=O)[C@H](NC(=O)OC(C)(C)C)C(C)C (some centres not stated) (Boc-[dV][ξNMeF][NMeV][NMeV]P-OBn) | > 69.7 | > 31.6 | > 31.6 |  | > 31.6 | > 31.6 | > 31.6 | > 100 |  | > 100 | > 31.6 | 23 | > 100 | > 100 | 
5 | O=C(O)CCC(NC(=O)c1ccc(Nc2cnc3cc(C(F)(F)F)ccc3n2)cc1)C(=O)O (configuration not stated) |  | > 100 | > 100 | > 100 | > 100 | > 100 | > 100 | > 100 | > 100 | > 100 | > 100 | > 100 | > 100 | > 100 | 
6 | CN1CCC2(c3ccccc3)CC(=O)/C(=C/c3ccc(Cl)c(Cl)c3)C1C2 (configuration not stated) | 5.35 | 12.8 | 9.63 |  | 3.46 | 4.12 | 7.81 | 4.69 | 11 | 7.21 | 4.64 | 8.37 | 3.72 | 11.2 | > 45.7
7 | Cc1ccc(Sc2ccccc2C23OC(C)(C4C(=O)N(c5ccccc5)C(=O)C42)N(C)C3=O)cc1 (configuration not stated) | > 100 | > 100 | > 100 |  | > 100 | > 100 | > 100 | > 100 | > 100 | > 100 | > 100 | > 100 | > 100 | > 100 | > 100
8 | COc1ccc2c(c1)CCc1c-2[nH]c2cc3c(cc2c1=O)OCO3 | > 100 |  | > 100 | > 100 | > 100 | > 100 | > 100 |  |  | > 100 | > 100 |  | > 100 | > 100 | 
9 | O=C(Sc1c(-c2ccccc2)c(=O)n(-c2ccccc2)c(=S)n1-c1ccccc1)c1ccccc1 | > 100 |  | > 100 |  | > 100 | > 100 | 73.3 | > 100 | > 100 | > 100 | > 100 | > 100 | > 100 | 88.2 | > 100
10 | C=C1CC(OC)(C(OC)C(=O)N[C@H]2OCO[C@H]3C2O[C@H](C[C@@H](COC)OC)C(C)(C)C3OC)O[C@H](C)[C@@H]1C (some centres not stated) |  | 2.58 |  |  | 1.33 | 5.49 | 1.88 | 7.73 | > 47 | 4.25 | 6.89 | 1.3 | > 47 | 9.99 | 
11 | O=C(NN1C(=O)CS(=O)(=O)C1c1ccc(Cl)c(Cl)c1)c1ccncc1 (configuration not stated) |  | > 100 | > 100 | > 100 | > 90.4 | > 100 | > 71.8 | > 100 | > 100 | > 100 | > 100 | > 100 | > 100 | > 100 | 
12 | CCCCC(=O)/C=c1/cc(C)[nH]c2cccc3cnn1c32 | > 100 | > 100 | > 100 |  | > 100 | > 100 | > 100 | > 100 | > 100 | > 100 | > 100 | > 100 | > 100 |  | > 100
13 | CC1(C)Cc2c(sc3[nH]c(=S)[nH]c(=S)c23)CS1 | > 100 | > 100 |  |  | 92.7 | > 100 | > 100 | > 100 | > 100 | 65.8 | > 100 | > 100 | > 100 |  | > 100
14 | Nc1nc(SCC(=O)c2ccccc2)c2[nH]cnc2n1 | > 100 | > 100 |  | > 100 | > 100 | > 100 | > 100 | > 100 |  | > 100 | > 100 | > 100 | > 100 | 82.6 | 
15 | CC(=O)[O-].CC(=O)[O-].O=C(N/N=C/c1cc(Cl)cc(Cl)c1[OH2+])c1ccncc1.[Mn+2] | 15.6 | 41 | 7.76 | 17 | 1.12 | 31.6 | 0.84 | 12.1 |  |  | 10.1 | 11 | 21.2 | 30.2 | 
16 | C[N+](C)(C)CC(=O)N/N=C(\Cc1nc2ccc([N+](=O)[O-])cc2[nH]c1=O)C(=O)Nc1nc2ccc([N+](=O)[O-])cc2s1 | > 100 | > 100 | > 100 | > 100 | > 100 | > 100 | > 100 | > 100 | > 100 | > 100 | > 100 | > 100 | > 100 | > 100 | 
